Data: US8163766B2, “Beta-secretase modulators and methods of use” (Amgen Inc., priority 2005, dated 2012)

Each compound was assayed on Aβ 40 in conditioned media of cells stably expressing Amyloid Precursor Protein (APP) (assay: BACE Cell-Based Assay (Aβ40 in conditioned medium, sandwich ELISA)). Conditions: 24 hours of incubation with the test compounds, Aβ 40 by sandwich ELISA, read-out: IC50 values in the cell-based assay (inhibition of Aβ 40).
Description: The cell-based assay measures inhibition or reduction of Aβ40 in conditioned medium of test compound treated cells, which express amyloid precursor protein.
Cells stably expressing Amyloid Precursor Protein (APP) were plated at a density of 40K cells/well in 96 well plates (Costar). The cells were cultivated for 24 h at 37° C. and 5% CO2 in DMEM supplemented with 10% FBS. The test compounds were then added to cells in 10-point dose response concentrations with the starting concentration being either 100 μM or 10 μM. The compounds were diluted from stock solutions in DMSO and the final DMSO concentration of the test compounds on cells was 0.1%. After 24 hours of incubation with the test compounds the supernatant conditioned media was collected and the Aβ 40 levels were determined using a sandwich ELISA. The IC50 of the compound was calculated from the percent of control or percent inhibition of Aβ 40 as a function of the concentration of the test compound.
The sandwich ELISA to detect Aβ 40 was performed in 96 well microtiter plates, which were pre-treated with goat anti-rabbit IgG (Pierce). The capture and detecting antibody pair that were used to detect Aβ 40 from cell supernatants were affinity purified pAb40 (Biosource) and biotinylated 6E10 (Signet Labs Inc.), respectively. The optimal concentration for the pAb40 antibody was 3 μg/ml in Superblock/TBS (Pierce) that was supplemented with 0.05% Tween 20 (Sigma). Optimal concentration for the detection antibody 6E10-biotinylated was […] in Superblock/TBS (Pierce) that had been supplemented with 2% normal goat serum and 2% normal mouse serum.
Cellular supernatants were incubated with the capture antibody for 3 h at 4° C., followed by 3 wash steps in TBS-tween (0.05%). The detecting antibody incubation was for 2 h at 4° C., again followed by the wash steps as described previously. The final readout of the ELISA is Time-Resolved Fluorescence (counts per minute) using Delfia reagents Streptavidin-Europium and Enhancement solutions (Perkin Elmer) and the Victor 2 multilabel counter (Perkin Elmer).

IC50	Compound
≤ 5 µM	CCc1ccc2c(c1)[C@@H](NC[C@@H](O)[C@H](Cc1ccccc1)NC(=O)[C@H]1CN(C(=O)OC(C)(C)C)c3ccccc3O1)CC1(CCCC1)O2 [Example 52, (R)-tert-Butyl 2-(((2S,3R)-4-((S)-6-ethyl-2,2-spirocyclopentylchroman-4-ylamino)-3-hydroxy-1-phenylbutan-2-yl)carbamoyl)-2,3-dihydrobenzo[b][1,4]oxazine-4-carboxylate]
≤ 5 µM	CCc1ccc2c(c1)[C@@H](NC[C@@H](O)[C@H](Cc1ccccc1)NC(=O)c1cc(-c3cccc(F)c3)c(=O)n3c1CCC3)CC1(CCCC1)O2 [Example 108, N-((2S,3R)-4-((8)-6-Ethyl-2,2-spirocyclopentylchroman-4-ylamino)3-hydroxy-1-phenylbutan-2-yl)-6-(3-fluorophenyl)-5-oxo-1,2,3,5-tetrahydroindolizine-8-carboxamide]
≤ 5 µM	CCc1ccc2c(c1)[C@@H](NC[C@@H](O)[C@H](Cc1ccccc1)NC(=O)c1ccc(=O)n(CC(C)C)c1)CC1(CCC1)O2 [Example 118]
≤ 5 µM	CCc1ccc2c(c1)[C@@H](NC[C@@H](O)[C@H](Cc1ccccc1)NC(=O)c1ccc(=O)n(CC(F)(F)F)c1)CC1(CCC1)O2 [Example 119]
≤ 5 µM	CCc1ccc2c(c1)[C@@H](NC[C@@H](O)[C@H](Cc1ccccc1)NC(=O)c1ccc(=O)n(-c3ccccc3)c1)CC1(CCC1)O2 [Example 120]
≤ 5 µM	O=C(N[C@@H](Cc1ccccc1)[C@H](O)CN[C@H]1CC2(CCCC2)Oc2ccc(Br)cc21)c1ccc(=O)n(C2CCCC2)c1 [Example 122]
≤ 5 µM	CCc1ccc2c(c1)[C@@H](NC[C@@H](O)[C@H](Cc1ccccc1)NC(=O)c1cc(-c3ccccc3F)c(=O)n3c1CCC3)CC1(CCC1)O2 [Example 126, N-((2S,3R)-4-((S)-6-Ethyl-2,2-spirocyclobutylchroman-4-ylamino)3-hydroxy-1-phenylbutan-2-yl)-6-(2-fluorophenyl)-5-oxo-1,2,3,5-tetrahydroindolizine-8-carboxamide]
≤ 5 µM	CCc1ccc2c(c1)[C@@H](NC[C@@H](O)[C@H](Cc1ccccc1)NC(=O)c1ccc(=O)n(C3CCCCC3)c1)CC1(CCCCC1)O2 [Example 129, 1-cyclohexyl-N-((2S,3R)-4-((S)-6-ethyl-2,2-spirocyclohexyl-chroman-4-ylamino)-3-hydroxy-1-phenylbutan-2-yl)-6-oxo-1,6-dihydropyridine-3-carboxamide]
≤ 5 µM	CCc1ccc2c(c1)[C@@H](NC[C@@H](O)[C@H](Cc1ccccc1)NC(=O)c1cc(N3CCCC3=O)c(=O)n(C3CCCC3)c1)CC1(CCCCCC1)O2 [Example 130, 1-cyclopentyl-N-((2S,3R)-4-((S)-6-ethyl-2,2-spirocycloheptyl-chroman-4-ylamino)-3-hydroxy-1-phenylbutan-2-yl)-6-oxo-5-(2-oxopyrrolidin-1-yl)-1,6-dihydropyridine-3-carboxamide]
≤ 5 µM	O=C(N[C@@H](Cc1ccccc1)[C@H](O)CN[C@H]1CC2(CCCC2)Oc2ccc(OC(F)(F)F)cc21)c1ccc(=O)n(C2CCCC2)c1 [Example 135, 1-cyclopentyl-N-((2S,3R)-4-((S)-2,2-spirocyclopentyl-6-(tri-fluoromethoxy)chroman-4-ylamino)-3-hydroxy-1-phenylbutan-2-yl)-6-oxo-1,6-dihydropyridine-3-carb oxamide]

More lines, now with the values behind:

Compound	IC50
CCc1ccc2c(c1)[C@@H](NC[C@@H](O)[C@H](Cc1ccccc1)NC(=O)[C@@H]1CN(C(C)=O)c3ccccc3O1)CC1(CCCC1)O2 [Example 51, (S)-4-acetyl-N-((2S,3R)-4-((S)-6-ethyl-2,2-spirocyclopentylchroman-4-ylamino)-3-hydroxy-1-phenylbutan-2-yl)-3,4-dihydro-2H-benzo[b][1,4]oxazine-2-carboxamide]	≤ 5 µM
CCc1ccc2c(c1)[C@@H](NC[C@@H](O)[C@H](Cc1ccccc1)NC(=O)c1cc(N3CCCC3=O)c(=O)n(C3CCCC3)c1)CC1(CCCC1)O2 [Example 105]	≤ 5 µM
CCc1ccc2c(c1)[C@@H](NC[C@@H](O)[C@H](Cc1ccccc1)NC(=O)c1cc(-c3ccccc3F)c(=O)n3c1CCC3)CC1(CCCC1)O2 [Example 107, N-((2S,3R)-4-((8)-6-Ethyl-2,2-spirocyclopentylchroman-4-ylamino)3-hydroxy-1-phenylbutan-2-yl)-6-(2-fluorophenyl)-5-oxo-1,2,3,5-tetrahydroindolizine-8-carboxamide]	≤ 5 µM
O=C(N[C@@H](Cc1ccccc1)[C@H](O)CN[C@H]1CC2(CCCC2)Oc2ccc(F)cc21)c1cc(N2CCCC2=O)c(=O)n(C2CCCC2)c1 [Example 110]	≤ 5 µM
O=C(N[C@@H](Cc1ccccc1)[C@H](O)CN[C@H]1CC2(CCCC2)Oc2c(F)cc(F)cc21)c1cc(N2CCCC2=O)c(=O)n(C2CCCC2)c1 [Example 111]	≤ 5 µM
CCc1ccc2c(c1)[C@@H](NC[C@@H](O)[C@H](Cc1ccccc1)NC(=O)c1cc(N3CCCC3=O)c(=O)n(C3CCCC3)c1)CC1(CCC1)O2 [Example 116]	≤ 5 µM
CCc1ccc2c(c1)[C@@H](NC[C@@H](O)[C@H](Cc1ccccc1)NC(=O)c1ccc(=O)n(C3CCCC3)c1)CC1(CCC1)O2 [Example 117]	≤ 5 µM
O=C(N[C@@H](Cc1ccccc1)[C@H](O)CN[C@H]1CC2(CCCC2)Oc2ccc(Br)cc21)c1cc(N2CCCC2=O)c(=O)n(C2CCCC2)c1 [Example 121]	≤ 5 µM
CC(C)Cn1cc(C(=O)N[C@@H](Cc2ccccc2)[C@H](O)CN[C@H]2CC3(CCCC3)Oc3ccc(Br)cc32)ccc1=O [Example 123]	≤ 5 µM
CC(C)(C)Cc1ccc2c(c1)[C@@H](NC[C@@H](O)[C@H](Cc1ccccc1)NC(=O)c1cc(N3CCCC3=O)c(=O)n(C3CCCC3)c1)CC1(CCCC1)O2 [Example 124]	≤ 5 µM
CC(C)(C)Cc1ccc2c(c1)[C@@H](NC[C@@H](O)[C@H](Cc1ccccc1)NC(=O)c1ccc(=O)n(C3CCCC3)c1)CC1(CCCC1)O2 [Example 125]	≤ 5 µM
CCc1ccc2c(c1)[C@@H](NC[C@@H](O)[C@H](Cc1ccccc1)NC(=O)c1cc(N3CCCC3=O)c(=O)n(C3CCCC3)c1)CC1(CCCCC1)O2 [Example 128, 1-cyclopentyl-N-((2S,3R)-4-((8)-6-ethyl-2,2-spirocyclohexyl-chroman-4-ylamino)-3-hydroxy-1-phenylbutan-2-yl)-6-oxo-5-(2-oxopyrrolidin-1-yl)-1,6-dihydropyridine-3-carboxamide]	≤ 5 µM
Cc1ccc2c(c1)[C@@H](NC[C@@H](O)[C@H](Cc1ccccc1)NC(=O)c1cc(N3CCCC3=O)c(=O)n(C3CCCC3)c1)CC1(CCCC1)O2 [Example 131, 1-cyclopentyl-N-((2S,3R)-4-((S)-2,2-spirocyclopentyl-6-methylchroman-4-ylamino)-3-hydroxy-1-phenylbutan-2-yl)-6-oxo-5-(2-oxopyrrolidin-1-yl)-1,6-dihydropyridine-3-carboxamide]	≤ 5 µM
Cc1ccc2c(c1)[C@@H](NC[C@@H](O)[C@H](Cc1ccccc1)NC(=O)c1ccc(=O)n(C3CCCC3)c1)CC1(CCCC1)O2 [Example 132, 1-cyclopentyl-N-((2S,3R)-4-((S)-2,2-spirocyclopentyl-6-methylchroman-4-ylamino)-3-hydroxy-1-phenylbutan-2-yl)-6-oxo-1,6-dihydropyridine-3-carboxamide]	≤ 5 µM
Cc1ccc2c(c1)[C@@H](NC[C@@H](O)[C@H](Cc1ccccc1)NC(=O)c1ccc(=O)n(CC(C)(C)C)c1)CC1(CCCC1)O2 [Example 133, N-((2S,3R)-4-((S)-2,2-spirocyclopentyl-6-methylchroman-4-ylamino)-3-hydroxy-1-phenylbutan-2-yl)-1-neopentyl-6-oxo-1,6-dihydropyridine-3-carboxamide]	≤ 5 µM
O=C(N[C@@H](Cc1ccccc1)[C@H](O)CN[C@H]1CC2(CCCC2)Oc2ccc(OC(F)(F)F)cc21)c1cc(N2CCCC2=O)c(=O)n(C2CCCC2)c1 [Example 134, 1-cyclopentyl-N-((2S,3R)-4-((S)-2,2-spirocyclopentyl-6-(trifluoromethoxy)chroman-4-ylamino)-3-hydroxy-1-phenylbutan-2-yl)-6-oxo-5-(2-oxopyrrolidin-1-yl)-1,6-dihydropyridine-3-carboxamide]	≤ 5 µM
CC(C)(C)Cn1cc(C(=O)N[C@@H](Cc2ccccc2)[C@H](O)CN[C@H]2CC3(CCCC3)Oc3ccc(OC(F)(F)F)cc32)ccc1=O [Example 136, N-((2S,3R)-4-((S)-2,2-spirocyclopentyl-6-(trifluoro-methoxy)chroman-4-ylamino)-3-hydroxy-1-phenylbutan-2-yl)-1-neopentyl-6-oxo-1,6-dihydropyridine-3-carboxamide]	≤ 5 µM
